These results are taken from US10392368B2, “Pyrazolo and triazolo bicyclic compounds as JAK kinase inhibitors” (THERAVANCE BIOPHARMA R&D IP, LLC, priority 2017, dated 2019).

Molecules are shown by their SMILES.

For this test, the system named is IL-2 stimulated pSTAT5 in PBMC CD4+ T cells. As to the kind of experiment: Inhibition of IL-2 stimulated pSTAT5 in human PBMC CD4+ T cells. The class given is cell-based. Particulars: flow cytometry. How it is done:
The potency of test compounds for inhibition of interleukin-2 (IL-2) stimulated STAT5 phosphorylation was measured in human peripheral blood mononuclear cell (PBMC) CD4+ T cells using flow cytometry. Because IL-2 signals through JAK3, this assay provides a measure of JAK3 cellular potency in human primary cells.
Phosphorylated STAT5 was measured via flow cytometry by measuring pSTAT5 response in CD4+ T cells (Becton Disckinson, AlexaFluor 647 Mouse anti-Human STAT5 (pY694) and PE Mouse anti-Human CD4).
Human PBMCs were isolated from donors via Ficoll gradient and frozen at −80° C. Frozen PBMCs were thawed and cultured for one hour in a 37° C., 5% CO2 humidified incubator in RPMI (Life Technologies) supplemented with 10% Heat Inactivated Fetal Bovine Serum (FBS, Life Technologies), 2 mM Glutamax (Life Technologies), 25 mM HEPES (Life Technologies) and 1× Pen/Strep (Life Technologies). Cells were seeded into 2 ml deep well plates at 4e6 cells/ml (50 μl/well). […]
To determine the inhibitory potency of test compounds in response to IL-2, the median fluorescence intensity of pSTAT5 in CD4+ gated cells was measured in human PBMCs with a BD LSRII with analysis in FCS Express 6. IC50 values were determined from analysis of the inhibition curves of signal intensity vs compound concentration. Data are expressed as pIC50 (negative decadic logarithm IC50) values (mean±standard deviation).

Regarding `CN(C)C/C=C/C(=O)N1CCC(C)(Oc2cc(-c3ccc(O)cc3)cc3[nH]ncc23)CC1` [Compound 9, (E)-4-(dimethylamino)-1-(4-((6-(4-hydroxyphenyl)-1H-indazol-4-yl)oxy)-4-methylpiperidin-1-yl)but-2-en-1-one], the “pIC50, inhibition of IL-2 stimulated pSTAT5, compared with assay 2” value was “values very similar to the ones obtained in assay 2”.
Turning to `CN(C)C/C=C/C(=O)N1CC(C#N)(COc2cc(-c3ccc(O)c(F)c3)cc3[nH]ncc23)C1` [Compound 8, (E)-1-(4-(dimethylamino)but-2-enoyl)-3-(((6-(3-fluoro-4-hydroxyphenyl)-1Hindazol-4-yl)oxy)methyl)azetidine-3-carbonitrile], the “pIC50, inhibition of IL-2 stimulated pSTAT5, compared with assay 2” value is given as “values very similar to the ones obtained in assay 2”.
